Reference: ChEMBL document CHEMBL1811776, “Discovery of benzimidazole derivatives as novel multi-target EGFR, VEGFR-2 and PDGFR kinase inhibitors” (Bioorg Med Chem, 2011)
Calls of active or inactive are those of the source. The rule behind the calls is not given here.

Columns and labels:
HepG2 [1] = assay: cells; conditions: Homo sapiens, HepG2, 72 h
Description: Cytotoxicity against human HepG2 cells after 72 hrs by MTT assay

[2] = target: Platelet-derived growth factor receptor alpha (Homo sapiens) (UniProt P16234); assay: Inhibition of PDGFR-alpha at 50 uM after 1 hrs by luminescence assay
[3] = target: Platelet-derived growth factor receptor beta (Homo sapiens) (UniProt P09619); assay: Inhibition of PDGFR-beta at 50 uM after 1 hrs by luminescence assay
[4] = target: Vascular endothelial growth factor receptor 1 (Homo sapiens) (UniProt P17948); assay: Inhibition of VEGFR-1 at 50 uM after 1 hrs by luminescence assay
[5] = target: Vascular endothelial growth factor receptor 2 (Homo sapiens) (UniProt P35968); assay: Inhibition of VEGFR-2 at 50 uM after 1 hrs by luminescence assay
[6] = target: Phosphatidylinositol 4,5-bisphosphate 3-kinase catalytic subunit alpha isoform (Homo sapiens) (UniProt P42336); assay: Inhibition of PI3K-alpha at 50 uM after 1 hrs by luminescence assay
[7] = target: Platelet-derived growth factor receptor alpha (Homo sapiens) (UniProt P16234); assay: Inhibition of PDGFR-alpha at 20 uM after 1 hrs by luminescence assay
[8] = target: Platelet-derived growth factor receptor beta (Homo sapiens) (UniProt P09619); assay: Inhibition of PDGFR-beta at 20 uM after 1 hrs by luminescence assay
[9] = target: Vascular endothelial growth factor receptor 2 (Homo sapiens) (UniProt P35968); assay: Inhibition of VEGFR-2 at 20 uM after 1 hrs by luminescence assay
[10] = target: Epidermal growth factor receptor (Homo sapiens, UniProt P00533); assay: Inhibition of EGFR after 1 hrs by luminescence assay
HepG2 [11] = assay: Induction of apoptosis in human HepG2 cells assessed as early apoptotic cells at 2 uM after 72 hrs using annexin V-propidium iodide staining based flow cytometric analysis; assay type: functional
HepG2 [12] = assay: Induction of apoptosis in human HepG2 cells assessed as late apoptotic or dead cells at 2 uM after 72 hrs using annexin V-propidium iodide staining based flow cytometric analysis; assay type: functional

Vascular endothelial growth factor receptor 1 (Homo sapiens), sequence (P17948 whole entry): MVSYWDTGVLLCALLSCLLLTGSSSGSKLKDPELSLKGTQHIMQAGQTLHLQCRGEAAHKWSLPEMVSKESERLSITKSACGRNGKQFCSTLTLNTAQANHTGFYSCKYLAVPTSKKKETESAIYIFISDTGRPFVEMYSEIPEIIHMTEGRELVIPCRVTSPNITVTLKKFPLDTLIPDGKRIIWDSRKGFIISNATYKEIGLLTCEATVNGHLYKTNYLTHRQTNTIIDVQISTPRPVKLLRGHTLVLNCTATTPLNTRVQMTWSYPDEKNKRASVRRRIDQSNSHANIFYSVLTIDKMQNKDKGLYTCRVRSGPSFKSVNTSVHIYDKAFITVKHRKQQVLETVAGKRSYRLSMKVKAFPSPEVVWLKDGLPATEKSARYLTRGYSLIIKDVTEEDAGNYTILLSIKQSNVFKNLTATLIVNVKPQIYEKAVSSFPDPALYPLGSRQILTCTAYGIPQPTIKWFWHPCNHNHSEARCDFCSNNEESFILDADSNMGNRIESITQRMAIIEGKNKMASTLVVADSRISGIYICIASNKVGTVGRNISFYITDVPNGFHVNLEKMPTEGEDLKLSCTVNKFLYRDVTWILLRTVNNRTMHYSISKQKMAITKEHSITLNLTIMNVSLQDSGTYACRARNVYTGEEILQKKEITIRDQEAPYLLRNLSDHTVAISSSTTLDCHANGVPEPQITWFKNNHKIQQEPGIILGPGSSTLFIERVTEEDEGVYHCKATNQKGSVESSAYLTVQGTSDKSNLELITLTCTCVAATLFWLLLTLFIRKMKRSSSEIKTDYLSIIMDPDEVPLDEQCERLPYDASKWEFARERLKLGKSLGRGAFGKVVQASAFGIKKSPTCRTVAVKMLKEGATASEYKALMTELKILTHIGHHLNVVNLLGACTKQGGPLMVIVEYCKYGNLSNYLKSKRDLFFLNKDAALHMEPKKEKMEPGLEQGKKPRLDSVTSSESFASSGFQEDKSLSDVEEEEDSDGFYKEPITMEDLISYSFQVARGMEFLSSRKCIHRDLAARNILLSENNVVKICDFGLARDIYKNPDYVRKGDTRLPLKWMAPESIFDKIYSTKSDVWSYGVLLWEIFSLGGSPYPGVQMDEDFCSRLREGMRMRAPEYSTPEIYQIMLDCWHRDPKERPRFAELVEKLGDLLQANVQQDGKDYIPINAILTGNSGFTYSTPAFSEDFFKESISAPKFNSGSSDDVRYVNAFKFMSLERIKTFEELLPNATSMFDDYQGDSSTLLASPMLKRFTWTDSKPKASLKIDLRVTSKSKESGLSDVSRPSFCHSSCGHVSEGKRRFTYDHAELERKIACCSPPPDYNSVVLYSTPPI
Platelet-derived growth factor receptor alpha (Homo sapiens), sequence (P16234 whole entry): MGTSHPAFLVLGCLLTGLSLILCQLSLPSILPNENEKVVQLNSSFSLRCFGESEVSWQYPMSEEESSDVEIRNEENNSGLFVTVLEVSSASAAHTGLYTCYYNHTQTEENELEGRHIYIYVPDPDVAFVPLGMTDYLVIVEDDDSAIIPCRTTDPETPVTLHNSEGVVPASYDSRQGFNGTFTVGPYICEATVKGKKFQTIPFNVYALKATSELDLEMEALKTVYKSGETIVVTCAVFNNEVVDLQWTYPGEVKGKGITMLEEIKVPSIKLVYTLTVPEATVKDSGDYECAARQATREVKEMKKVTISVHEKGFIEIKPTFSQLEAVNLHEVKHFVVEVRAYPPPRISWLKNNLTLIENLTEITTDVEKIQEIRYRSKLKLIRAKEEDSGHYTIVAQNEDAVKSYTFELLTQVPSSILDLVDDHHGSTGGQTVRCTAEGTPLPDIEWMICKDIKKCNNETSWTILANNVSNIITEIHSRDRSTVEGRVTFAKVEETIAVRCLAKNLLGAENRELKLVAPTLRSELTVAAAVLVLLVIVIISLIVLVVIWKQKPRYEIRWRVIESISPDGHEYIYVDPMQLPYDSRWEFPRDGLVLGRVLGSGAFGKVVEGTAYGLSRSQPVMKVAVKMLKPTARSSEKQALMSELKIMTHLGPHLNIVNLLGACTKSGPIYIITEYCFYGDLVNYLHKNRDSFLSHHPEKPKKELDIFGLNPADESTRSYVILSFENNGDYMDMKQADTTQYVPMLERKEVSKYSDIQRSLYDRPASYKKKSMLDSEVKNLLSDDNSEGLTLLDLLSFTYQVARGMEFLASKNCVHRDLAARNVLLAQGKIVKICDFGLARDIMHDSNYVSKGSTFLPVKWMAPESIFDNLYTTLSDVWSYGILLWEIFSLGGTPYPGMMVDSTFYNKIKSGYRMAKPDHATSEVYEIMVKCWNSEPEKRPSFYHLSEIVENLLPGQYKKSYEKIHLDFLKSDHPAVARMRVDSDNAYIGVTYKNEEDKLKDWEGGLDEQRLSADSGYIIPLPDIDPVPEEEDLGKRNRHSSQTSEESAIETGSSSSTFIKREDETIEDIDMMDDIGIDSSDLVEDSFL
Phosphatidylinositol 4,5-bisphosphate 3-kinase catalytic subunit alpha isoform (Homo sapiens), sequence (P42336 whole entry, canonical isoform): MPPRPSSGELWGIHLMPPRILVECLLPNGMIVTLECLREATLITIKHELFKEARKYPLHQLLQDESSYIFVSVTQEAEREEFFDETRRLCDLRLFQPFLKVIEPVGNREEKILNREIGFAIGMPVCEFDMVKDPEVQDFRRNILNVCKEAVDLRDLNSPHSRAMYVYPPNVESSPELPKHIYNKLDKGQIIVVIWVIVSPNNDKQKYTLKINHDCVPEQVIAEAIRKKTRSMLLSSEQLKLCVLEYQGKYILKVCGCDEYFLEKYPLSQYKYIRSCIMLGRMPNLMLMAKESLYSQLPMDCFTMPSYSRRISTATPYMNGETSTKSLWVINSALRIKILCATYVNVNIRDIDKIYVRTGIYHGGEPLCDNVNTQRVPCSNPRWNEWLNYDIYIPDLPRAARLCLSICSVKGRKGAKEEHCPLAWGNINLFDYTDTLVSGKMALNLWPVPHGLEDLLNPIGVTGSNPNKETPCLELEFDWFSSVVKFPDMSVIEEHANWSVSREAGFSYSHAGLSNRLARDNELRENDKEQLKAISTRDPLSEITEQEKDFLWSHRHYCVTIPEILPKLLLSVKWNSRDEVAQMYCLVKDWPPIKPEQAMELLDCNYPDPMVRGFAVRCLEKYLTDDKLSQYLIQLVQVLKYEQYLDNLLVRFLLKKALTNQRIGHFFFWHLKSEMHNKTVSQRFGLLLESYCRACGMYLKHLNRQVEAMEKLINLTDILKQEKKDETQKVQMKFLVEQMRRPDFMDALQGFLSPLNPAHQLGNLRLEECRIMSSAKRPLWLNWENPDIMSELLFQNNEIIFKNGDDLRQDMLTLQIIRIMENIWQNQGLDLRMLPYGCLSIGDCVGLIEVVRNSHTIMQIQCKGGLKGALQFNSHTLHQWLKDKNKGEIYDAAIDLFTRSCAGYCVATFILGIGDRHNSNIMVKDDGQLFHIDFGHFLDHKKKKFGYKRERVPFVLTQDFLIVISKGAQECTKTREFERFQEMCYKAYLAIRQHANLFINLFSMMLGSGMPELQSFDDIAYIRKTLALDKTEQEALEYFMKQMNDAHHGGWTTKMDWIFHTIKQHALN
Platelet-derived growth factor receptor beta (Homo sapiens), sequence (P09619 whole entry): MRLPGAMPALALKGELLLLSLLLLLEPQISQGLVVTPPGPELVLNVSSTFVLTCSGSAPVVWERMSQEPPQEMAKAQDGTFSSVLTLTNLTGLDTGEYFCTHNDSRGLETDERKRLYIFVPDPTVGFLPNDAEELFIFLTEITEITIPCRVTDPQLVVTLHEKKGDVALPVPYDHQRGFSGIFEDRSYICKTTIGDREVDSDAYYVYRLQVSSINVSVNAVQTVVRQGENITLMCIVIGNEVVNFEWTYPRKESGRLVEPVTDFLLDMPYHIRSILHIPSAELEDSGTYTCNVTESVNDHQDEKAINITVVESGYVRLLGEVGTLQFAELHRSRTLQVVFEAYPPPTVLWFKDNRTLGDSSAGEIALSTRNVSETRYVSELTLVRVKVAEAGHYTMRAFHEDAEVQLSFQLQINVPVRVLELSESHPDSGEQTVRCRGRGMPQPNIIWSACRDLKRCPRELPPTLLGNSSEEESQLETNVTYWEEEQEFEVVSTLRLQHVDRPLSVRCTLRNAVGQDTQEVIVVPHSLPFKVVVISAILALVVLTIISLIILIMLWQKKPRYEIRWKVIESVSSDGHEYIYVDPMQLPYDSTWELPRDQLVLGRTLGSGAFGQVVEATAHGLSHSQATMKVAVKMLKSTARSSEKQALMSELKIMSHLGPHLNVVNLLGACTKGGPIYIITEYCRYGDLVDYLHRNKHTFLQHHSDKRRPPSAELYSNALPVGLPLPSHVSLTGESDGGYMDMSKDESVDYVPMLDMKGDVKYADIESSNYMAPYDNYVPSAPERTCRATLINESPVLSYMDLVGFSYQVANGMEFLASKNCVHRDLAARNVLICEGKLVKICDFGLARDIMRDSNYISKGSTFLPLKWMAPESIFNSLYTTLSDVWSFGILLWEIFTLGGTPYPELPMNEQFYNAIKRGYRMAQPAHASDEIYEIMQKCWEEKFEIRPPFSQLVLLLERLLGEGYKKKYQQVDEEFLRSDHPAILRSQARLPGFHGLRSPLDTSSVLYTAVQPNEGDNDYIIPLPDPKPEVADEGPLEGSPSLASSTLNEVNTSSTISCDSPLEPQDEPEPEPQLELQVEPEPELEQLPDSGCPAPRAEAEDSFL

SMILES: Cn1cccc1-c1nc2cc(NC(=O)CCCl)ccc2[nH]1
- IC50 (HepG2 [1]): > 50 µM

SMILES: CCN1CCN(CCC(=O)Nc2ccc3[nH]c(-c4ccc(C)cc4)nc3c2)CC1
- IC50 (HepG2 [1]): 14.6 µM

SMILES: O=C(CCCl)Nc1ccc2[nH]c(-c3ccc(Br)cc3)nc2c1
- IC50 (HepG2 [1]): 11.3 µM

SMILES: COc1cc2c(c(OC)c1OC)-c1ccc(OC)c(=O)cc1[C@@H](NC(C)=O)CC2 [COLCHICINE]
- IC50 (HepG2 [1]): 0.05 µM

SMILES: Cc1ccc(-c2nc3cc(NC(=O)CCCl)ccc3[nH]2)cc1
- inhibition [2]: 17%
- inhibition [3]: 24.6%
- inhibition [4]: 3.3%
- inhibition [5]: inactive
- inhibition [6]: inactive
- IC50 (HepG2 [1]): > 50 µM

SMILES: Cc1cnc(C(=O)Nc2ccc3[nH]c(-c4ccc(F)cc4)nc3c2)cn1
- inhibition [7]: 5.43%
- inhibition [8]: 0.5%
- inhibition [9]: 0.5%

SMILES: Cc1ccc(-c2nc3cc(NC(=O)CN4CCOCC4)ccc3[nH]2)cc1
- IC50 (HepG2 [1]): > 50 µM

SMILES: O=C(Nc1ccc2[nH]c(-c3ccc(F)cc3)nc2c1)c1cnccn1
- inhibition [7]: 2.55%
- inhibition [8]: 0.27%
- inhibition [9]: 0.58%

SMILES: Cn1cccc1-c1nc2cc(NC(=O)CCl)ccc2[nH]1
- inhibition [2]: 18.7%
- inhibition [3]: 17.8%
- inhibition [4]: inactive
- inhibition [5]: 16.5%
- inhibition [6]: 3.7%
- IC50 [10]: 12.1 µM
- Activity (HepG2 [11]): 22.8%
- Activity (HepG2 [12]): 18.7%
- IC50 (HepG2 [1]): 1.8 µM

SMILES: CCN1CCN(CCC(=O)Nc2ccc3[nH]c(-c4cccn4C)nc3c2)CC1
- IC50 (HepG2 [1]): > 50 µM

SMILES: CN[C@@H]1C[C@H]2O[C@@](C)([C@@H]1OC)n1c3ccccc3c3c4c(c5c6ccccc6n2c5c31)C(=O)NC4
- inhibition [2]: 92.6%
- inhibition [4]: 93.4%
- inhibition [6]: 97%
- inhibition [7]: 97.5%

SMILES: CCN1CCN(CCC(=O)Nc2ccc3[nH]c(-c4ccc(Br)cc4)nc3c2)CC1
- IC50 (HepG2 [1]): 27.4 µM

SMILES: CCN1CCN(CC(=O)Nc2ccc3[nH]c(-c4cccn4C)nc3c2)CC1
- IC50 (HepG2 [1]): > 50 µM

SMILES: Cc1ccc(-c2nc3cc(NC(=O)CCN4CCCCC4)ccc3[nH]2)cc1
- IC50 (HepG2 [1]): 11.9 µM

SMILES: Cc1ccc(-c2nc3cc(NC(=O)CCN4CCN(C)CC4)ccc3[nH]2)cc1
- IC50 (HepG2 [1]): > 50 µM

SMILES: Cc1ccc(-c2nc3cc(NC(=O)CN4CCCC4)ccc3[nH]2)cc1
- IC50 (HepG2 [1]): > 50 µM

SMILES: Cc1ccc(-c2nc3cc(NC(=O)CCl)ccc3[nH]2)cc1
- inhibition [2]: 42.7%
- inhibition [3]: 52.6%
- inhibition [4]: 7.3%
- inhibition [5]: 33.1%
- inhibition [6]: inactive
- IC50 [10]: 1.93 µM
- Activity (HepG2 [11]): 28.6%
- Activity (HepG2 [12]): 16.6%
- IC50 (HepG2 [1]): 2 µM

SMILES: Cc1ccc(-c2nc3cc(NC(=O)CN4CCN(C)CC4)ccc3[nH]2)cc1
- IC50 (HepG2 [1]): > 50 µM

SMILES: CCN1CCN(CC(=O)Nc2ccc3[nH]c(-c4ccc(C)cc4)nc3c2)CC1
- IC50 (HepG2 [1]): 31.9 µM

SMILES: Cc1ccc(-c2nc3cc(NC(=O)CN4CCCCC4)ccc3[nH]2)cc1
- IC50 (HepG2 [1]): > 50 µM
